Each structure is given as a SMILES string.

As a reminder, the melting point is the temperature of the solid-liquid transition. What is called IC50 is the point on the concentration scale where inhibition reaches its midpoint. Read a high IC50 as weaker potency.

Data set [1] deals with 20-HETE synthase originated from rat kidney microsome. The data set is described as follows: Inhibitory effect of 20-HETE synthase originated from rat kidney microsome. The format is biochemical. The conditions noted are these: for IC50: concentration at which production of 20-HETE was inhibited to 50%; for Inhibition rate (1 μM): 1 μM of the subject compound, 20-HETE production without compound set to 100%. In a few lines:
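Kidney microsomes from 6-week male spontaneously hypertensive rats were used with tritium-arachidonic acid and NADPH. 20-HETE was quantified by radio-HPLC on a C18 column.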

`OCC(O)COc1ccc(N/C=N/O)cc1` (stereo not drawn) [Comp. 436] gave a melting point of 140.5 to 141 °C. For the same compound, the IC50 in data set [1] turned out to be 79.2 nM.

`CC(C)Sc1ccc(N/C=N/O)cc1` [Comp. 439]: the melting point is 144.1 to 144.2 °C. Besides, in data set [1], the “Inhibition rate (1 μM)” value turned out to be 92.3 and the concentration for half-maximal inhibition (IC50) came out at 2.9 nM.

As for `O/N=C/Nc1ccc(SCc2ccccc2)cc1` [Comp. 441, N-[4-(benzylthio)phenyl]-N′-hydroxyformamidine], the melting point was 166 °C. Further, in data set [1], the “Inhibition rate (1 μM)” value is listed as 94.2.

For `OCCSc1ccc(N/C=N/O)cc1` [Comp. 444], the melting point is 121 °C. In data set [1], the “Inhibition rate (1 μM)” value is listed as 100.7 and the IC50 was determined as 12.1 nM.

The compound `CN(C)CCSc1ccc(N/C=N/O)cc1` [Comp. 445] gave a melting point of 112 °C. Moreover, the “Inhibition rate (1 μM)” value in data set [1] was found to be 95.1.

As to `O/N=C/Nc1ccc(SCc2ccco2)cc1` [Comp. 448], the melting point fell in the range of 125 to 126.5 °C. For the same compound, in data set [1], the “Inhibition rate (1 μM)” value amounted to 109.8 and the IC50 is 1.9 nM.

Compound `CCC(C)Sc1ccc(N/C=N/O)cc1` (stereo not drawn) [Comp. 449] yielded a melting point of 119 to 120.5 °C. Also, in data set [1], the “Inhibition rate (1 μM)” value is 105.1 and the concentration for half-maximal inhibition (IC50) was determined as 1.8 nM.

In turn, `CC(C)(C)Sc1ccc(N/C=N/O)cc1` [Comp. 456] returned a melting point of 143 to 145 °C. In data set [1], the “Inhibition rate (1 μM)” value is on record as 94.4 and the IC50 is 6.3 nM.

Regarding `OCCCSc1ccc(N/C=N/O)cc1` [Comp. 459], the melting point fell in the range of 108 to 108.5 °C. Moreover, in data set [1], the “Inhibition rate (1 μM)” value was found to be 119.0 and the IC50 came out at 2.4 nM.

(Values after patent US7078400B2, “20-HETE synthase inhibitor” (Taisho Pharmaceutical Co., Ltd., priority 1999, dated 2006).)
